Results reported in PubChem BioAssay (NCI).
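Grown in 96-well plates, cells were treated for 48 hours with each compound at five concentrations. Insufficient inhibition: endpoint recorded as highest concentration tested. At the GI50, growth is halved. TGI: total growth inhibition.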

Columns and labels:
Assay in all cases: NCI tumour cell line growth inhibition, 48 h
NCI-H460 lung = test system: NCI-H460 lung
HS 578T breast = test system: HS 578T breast
SK-MEL-2 melanoma = test system: SK-MEL-2 melanoma
K-562 leukemia = test system: K-562 leukemia
TK-10 renal = test system: TK-10 renal
HT29 colon = test system: HT29 colon
HCC-2998 colon = test system: HCC-2998 colon
NCI-H226 lung = test system: NCI-H226 lung
786-0 renal = test system: 786-0 renal
ACHN renal = test system: ACHN renal
RXF 393 renal = test system: RXF 393 renal
LOX IMVI melanoma = test system: LOX IMVI melanoma
COLO 205 colon = test system: COLO 205 colon
HL-60(TB) leukemia = test system: HL-60(TB) leukemia
U251 CNS = test system: U251 CNS
MCF7 breast = test system: MCF7 breast
SK-MEL-28 melanoma = test system: SK-MEL-28 melanoma
SK-OV-3 ovarian = test system: SK-OV-3 ovarian
SF-295 CNS = test system: SF-295 CNS
KM12 colon = test system: KM12 colon
MALME-3M melanoma = test system: MALME-3M melanoma
HCT-116 colon = test system: HCT-116 colon
SN12C renal = test system: SN12C renal
NCI-H522 lung = test system: NCI-H522 lung
IGROV1 ovarian = test system: IGROV1 ovarian
NCI-H23 lung = test system: NCI-H23 lung
MDA-MB-435 = test system: MDA-MB-435
MDA-MB-231 breast = test system: MDA-MB-231 breast
UO-31 renal = test system: UO-31 renal

Nc1n[nH]c2cccc(C#Cc3cccc(NC(=O)Nc4cc(C(F)(F)F)cc(C(F)(F)F)c4)c3)c12
GI50 (NCI-H460 lung): 2.04 µM | TGI (NCI-H460 lung): 5.14 µM | GI50 (HS 578T breast): 1.97 µM | TGI (HS 578T breast): 7.7 µM | GI50 (SK-MEL-2 melanoma): 1.62 µM | TGI (SK-MEL-2 melanoma): 3.34 µM | GI50 (K-562 leukemia): 2.72 µM | TGI (K-562 leukemia): > 100 µM | GI50 (TK-10 renal): 4.2 µM | TGI (TK-10 renal): 12.9 µM | GI50 (HT29 colon): 1.67 µM | TGI (HT29 colon): 3.26 µM | GI50 (HCC-2998 colon): 2.31 µM | TGI (HCC-2998 colon): 5.07 µM | GI50 (NCI-H226 lung): 2.82 µM | TGI (NCI-H226 lung): 9.34 µM | GI50 (786-0 renal): 2.16 µM | TGI (786-0 renal): 4.78 µM | GI50 (ACHN renal): 2.71 µM | TGI (ACHN renal): 9.39 µM | GI50 (RXF 393 renal): 2.55 µM | TGI (RXF 393 renal): 6.69 µM | GI50 (LOX IMVI melanoma): 1.6 µM | TGI (LOX IMVI melanoma): 2.94 µM | GI50 (COLO 205 colon): 1.88 µM | TGI (COLO 205 colon): 4 µM | GI50 (HL-60(TB) leukemia): 1.81 µM | TGI (HL-60(TB) leukemia): 7.04 µM | GI50 (U251 CNS): 2.3 µM | TGI (U251 CNS): 6.22 µM | GI50 (MCF7 breast): 2.52 µM | TGI (MCF7 breast): 7.36 µM | GI50 (SK-MEL-28 melanoma): 2.76 µM | TGI (SK-MEL-28 melanoma): 8.6 µM | GI50 (SK-OV-3 ovarian): 3.87 µM | TGI (SK-OV-3 ovarian): 12.3 µM | GI50 (SF-295 CNS): 2.32 µM | TGI (SF-295 CNS): 6.83 µM | GI50 (KM12 colon): 1.85 µM | TGI (KM12 colon): 4.1 µM | GI50 (MALME-3M melanoma): 1.6 µM | TGI (MALME-3M melanoma): 4.24 µM | GI50 (HCT-116 colon): 2.07 µM | TGI (HCT-116 colon): 5.64 µM | GI50 (SN12C renal): 1.52 µM | TGI (SN12C renal): 3.31 µM | GI50 (NCI-H522 lung): 2.37 µM | TGI (NCI-H522 lung): 7.01 µM | GI50 (IGROV1 ovarian): 2.66 µM | TGI (IGROV1 ovarian): 7.78 µM | GI50 (NCI-H23 lung): 2.16 µM | TGI (NCI-H23 lung): 5.44 µM | GI50 (MDA-MB-435): 1.92 µM | TGI (MDA-MB-435): 4.18 µM | GI50 (MDA-MB-231 breast): 1.06 µM | TGI (MDA-MB-231 breast): 2.45 µM | GI50 (UO-31 renal): 3.11 µM | TGI (UO-31 renal): 10.3 µM
